Measurements reported in article PMC4336777 (Archives of biochemistry and biophysics, 2014).
Entries after “also recorded” stand apart in the source; their conditions may differ. Like-named read-outs stand apart in the source and are kept apart here.

Assays:
Myeloperoxidase (MPO) [1] = target: T1, Myeloperoxidase (MPO) (Homo sapiens, UniProt P05164); assay: MPO fluorescence stopped flow assay; conditions: for k−3: same fixed constants; for Akaike weight / ΔAICc: Dynafit 3 model discrimination; for best fitting slow binding inhibition model: Akaike information criterion based discrimination
T1 sequence (P05164 165-273 limits assumed): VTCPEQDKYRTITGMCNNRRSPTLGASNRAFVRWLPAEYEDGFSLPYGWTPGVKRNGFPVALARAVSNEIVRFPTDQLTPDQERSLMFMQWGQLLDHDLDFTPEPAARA
T1 sequence (P05164 279-745 limits assumed): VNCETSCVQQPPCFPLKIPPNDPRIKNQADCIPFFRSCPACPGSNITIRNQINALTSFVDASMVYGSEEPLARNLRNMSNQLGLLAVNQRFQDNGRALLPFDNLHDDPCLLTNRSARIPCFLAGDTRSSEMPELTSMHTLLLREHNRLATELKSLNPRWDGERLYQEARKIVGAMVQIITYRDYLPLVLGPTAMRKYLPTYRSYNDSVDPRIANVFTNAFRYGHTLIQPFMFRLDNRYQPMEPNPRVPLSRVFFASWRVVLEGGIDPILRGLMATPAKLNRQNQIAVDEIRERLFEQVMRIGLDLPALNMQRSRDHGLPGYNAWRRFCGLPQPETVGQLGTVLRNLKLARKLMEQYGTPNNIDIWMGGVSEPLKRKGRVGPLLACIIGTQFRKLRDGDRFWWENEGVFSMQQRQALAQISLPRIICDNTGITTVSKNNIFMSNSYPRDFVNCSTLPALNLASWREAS

Myeloperoxidase (MPO) [2] = target: T1, Myeloperoxidase (MPO); assay: SDS-PAGE analysis of inhibitor-mediated cleavage of MPO; assay type: biochemical; conditions: MPO 1.2 μM, ADHP 40 μM, inhibitor 0-25 mM, H2O2 20 μM, 10 min, room temperature
Myeloperoxidase (MPO) [3] = target: T1, Myeloperoxidase (MPO); conditions: for apparent kcat of MPO for ADHP in presence of inhibitor: Lineweaver-Burk
Myeloperoxidase (MPO) [4] = target: T1, Myeloperoxidase (MPO); conditions: MPO 23 nM pre-incubated with inhibitor 1 hr without H2O2, dialysis, then H2O2
[5] = 1 or 2-step slow tight-binding fit, DynaFit 3, fixed k+1 = 10 μM^−1s^−1, k−1 = 80 s^−1, k+2 = 224 s^−1, pH 5.6, 25°C
[6] = 1 or 2-step slow tight-binding fit, DynaFit 3
[7] = 2-step slow tight-binding fit, DynaFit 3

Compound	k+3 (Myeloperoxidase (MPO) [1]; [5])	k−3 (Myeloperoxidase (MPO) [1]; [6])	Akaike weight (Myeloperoxidase (MPO) [1]; 1 step model)	ΔAICc (Myeloperoxidase (MPO) [1]; 1 step model)	Akaike weight (Myeloperoxidase (MPO) [1]; 2 step model)	ΔAICc (Myeloperoxidase (MPO) [1]; 2 step model)	best fitting slow binding inhibition model (Myeloperoxidase (MPO) [1])	Ki (Myeloperoxidase (MPO) [1]; Ki, Ki = k−3/k+3, DynaFit 3) [nM]	also measured
NNC(=O)c1ccccc1N [2-ABAH, 2-aminobenzoic acid hydrazide]	0.10 ± 0.0014 µM⁻¹ s⁻¹	0.026 ± 0.0003 s⁻¹	0.01127	8.9	0.9887	0	two-step slow binding inhibitor; also recorded: two-step mechanism	260	k+4 (Myeloperoxidase (MPO) [1]; [7]): 0.0067 ± 0.0004 s⁻¹; k−4 (Myeloperoxidase (MPO) [1]; [7]): 0.0094 ± 0.002 s⁻¹; Ki (Myeloperoxidase (MPO) [1]; Ki* (overall inhibition constant, two-step model), two-step slow tight-binding model, Eq. 9): 160 nM; fold higher affinity inhibitor of Compound I as compared to isoniazid (Myeloperoxidase (MPO) [1]; from Ki* versus Ki of isoniazid): 62 fold
CN(C)c1cccc(C(=O)NN)c1 [3-DMABAH, 3-(dimethylamino) benzoic acid hydrazide]								560	
NNC(=O)c1ccc(F)cc1 [4-FBAH, 4-fluorobenzoic acid hydrazide]	0.0075 ± 4.93E-05 μM^−1s^−1	0.0062 ± 0.0001 s⁻¹	0.9196	0	0.0804	4.9		830	
NNC(=O)c1ccc([N+](=O)[O-])cc1 [4-NBAH, 4-nitrobenzoic acid hydrazide]								3700	
NNC(=O)c1ccc(C(F)(F)F)cc1 [4-TFMBAH, 4-(trifluoromethyl) benzoic acid hydrazide]	0.0013 ± 1.36E-05 μM^−1s^−1	0.004 ± 0.0002 s⁻¹	0.909	0	0.09104	4.6	one-step slow binding inhibition model	3080	
CC(=O)N1c2ccc(O)cc2Oc2cc(O)ccc21 [ADHP, 10-acetyl-3,7-dihydroxyphenoxazine, reference compound]									kon (Myeloperoxidase (MPO) [1]; read-out: apparent second order rate constant (K^appon)): 2100 ± 200 M⁻¹ s⁻¹
NNC(=O)c1ccccc1 [BAH, benzoic acid hydrazide]	0.0098 ± 5.47E-05 μM^−1s^−1	0.0068 ± 9.5E-05 s^−1	0.9969	0	0.00315	11.5		690	cleavage of MPO light chain-heme from heavy chain (Myeloperoxidase (MPO) [2]): light chain of MPO is cleaved from MPO
OO [H2O2, hydrogen peroxide]									Ki (Myeloperoxidase (MPO) [3]; read-out: apparent inhibitory rate constant Ki (substrate inhibition)): 10.8 nM
NNC(=O)c1ccncc1 [Isoniazid, isonicotinylhydrazine, reference compound]	0.0011 ± 7.31E-06 μM^−1s^−1	0.011 ± 0.0001 s⁻¹	0.8857	0	0.1143	4.1	one-step slow binding inhibition model	10000	
[N-]=[N+]=[N-].[Na+] [NaN3, sodium azide, reference compound]		0.156 ± 0.001 s⁻¹	0.8814	0	0.1186	4.0	one-step slow binding inhibition model		type of inhibition with ADHP (Myeloperoxidase (MPO) [3]; Lineweaver-Burk plots, 0, 7.5, 30 μM NaN3): competitive inhibition or mixed-type inhibition; apparent kcat of MPO for ADHP in presence of inhibitor (Myeloperoxidase (MPO) [3]; NaN3 7.5 μM): 161 s⁻¹; apparent kcat of MPO for ADHP in presence of inhibitor (Myeloperoxidase (MPO) [3]; NaN3 30 μM): 108 s⁻¹; fold reduction in apparent specificity constant (kcat/Km) (Myeloperoxidase (MPO) [3]; native system versus 30 μM NaN3): 11 fold; reversibility of inhibitor binding to MPO after equilibrium dialysis (Myeloperoxidase (MPO) [4]): reversible; Ki (Myeloperoxidase (MPO) [1]; Ki = k−3/k+3, DynaFit 3): 840 nM; k+3 (Myeloperoxidase (MPO) [1]; pH 5.6): 0.185 ± 0.0018 µM⁻¹ s⁻¹
